Like-named read-outs stand apart in the source and are kept apart here. Marks after values point to notes of the source that are not given here.
What was measured:
[1] = tested on: Hep 3B cells; assay: MTT cell viability assay, Hep 3B cells (serum-free DMEM)
From the text: (§1) Human hepatoma cell lines Hep G2 and Hep 3 were chosen as the in vitro models of hepatocytes and hepatoma, respectively.

[2] = tested on: Hep 3B/T2 cells; assay: Tumor growth of Hep 3B/T2 cells in nude mice; type: in vivo, BALB/c-nu/nu nude mice
From the text: The descriptive statistics were summarized as mean±STD. For statistical analysis, Student's t-test was used to determine significance of mean differences between groups.

[3] = tested on: Hep G2 cells; assay: MTT cell viability assay, Hep G2 cells (serum-free DMEM); details: Homo sapiens
From the text: as §1

[4] = as above; details: human, Hep G2 cells, Cell viability
From the text: as §1

[5] = tested on: Hep 3B/T2 cells; assay: Tumor growth of Hep 3B/T2 cells in nude mice; type: in vivo, BALB/c-nu/nu nude mice; details: for Tumor size: LOV 75 mg/kg/day p.o. days 8-14 and/or taxol 120 μg/kg/day i.p. days 15-19, n = 3
[6] = Cycle 1 (Day 42), LOV 37.5 mg/kg/day p.o. days 28-34 and 49-55 and/or taxol 120 μg/kg/2 day i.p. day 36, 38, 40, 57, 59, 61
[7] = Cycle 2 (Day 63), LOV 37.5 mg/kg/day p.o. days 28-34 and 49-55 and/or taxol 120 μg/kg/2 day i.p. day 36, 38, 40, 57, 59, 61

## CC(=O)O[C@H]1C(=O)[C@@]2(C)[C@H]([C@H](OC(=O)c3ccccc3)[C@]3(O)C[C@H](OC(=O)[C@H](O)[C@@H](NC(=O)c4ccccc4)c4ccccc4)C(C)=C1C3(C)C)[C@]1(OC(C)=O)CO[C@@H]1C[C@@H]2O [Taxol, paclitaxel]
[1]; taxol 500 nM, 48 hr
  Ratio, inhibition (%) Hep 3B/inhibition (%) Hep G2: 0.6**
[1]; taxol 500 nM, 72 hr
  Ratio, inhibition (%) Hep 3B/inhibition (%) Hep G2: 0.8**
[1]; taxol 1000 nM, 48 hr
  Ratio, inhibition (%) Hep 3B/inhibition (%) Hep G2: 0.5**
[1]; taxol 1000 nM, 72 hr
  Ratio, inhibition (%) Hep 3B/inhibition (%) Hep G2: 0.8**
[2]; [6]
  Tumor size: 0.465 cm^3
[2]; [7]
  Tumor size: 1.424 cm^3
  percentage of inhibition of tumor size: (−43.1%
[2]; Day 15, LOV 75 mg/kg/day p.o. days 8-14 and/or taxol 120 μg/kg/day i.p. days 15-19, n = 3
  Tumor size: 0.125 cm^3
[2]; Day 20, LOV 75 mg/kg/day p.o. days 8-14 and/or taxol 120 μg/kg/day i.p. days 15-19, n = 3
  Tumor size: 0.047 cm^3
[2]; Day 23, LOV 75 mg/kg/day p.o. days 8-14 and/or taxol 120 μg/kg/day i.p. days 15-19, n = 3
  Tumor size: 0.037 cm^3
[2]; Day 28 after inoculation of 1 × 10^7 Hep 3B/T2 cells in male BALB/c-nu/nu nude mice, p.o. lovastatin 37.5 mg/kg/day (days 28-34, 49-55) and/or i.p. taxol 120 μg/kg/2 day (days 36, 38, 40, 57, 59, 61), mean ± SEM
  Tumor size (1 × w^2 × 0.52 cm^3) Day 28: 0.170 cm^3
[2]; after two cycles: lovastatin fed 7 days, then paclitaxel injected 3 days (FIG. 38), mean±STD
  Tumor size: 1.43±0.46 cm^3
[3]; HepG2, 48 h, read-out: IC50 (cell viability), 48 hr, Table 8
  IC50: 40.8 ± 7 nM
[3]; HepG2, 48 h, read-out: IC50 (cell viability), 48 hr, Table 9
  IC50: 12.4 nM
[3]; HepG2, 72 h, read-out: IC50 (cell viability), 72 hr, Table 8
  IC50: 7.8 ± 1 nM
[3]; HepG2, 72 h, read-out: IC50 (cell viability), 72 hr, Table 9
  IC50: 7.8 nM
[3]; HepG2, 96 h, read-out: IC50 (cell viability), 96 hr
  IC50: 3.6 nM
[3]; HepG2, 120 h, read-out: IC50 (cell viability), 120 hr
  IC50: 3.5 nM
[4]; no lovastatin 48 hr, then taxol 2 nM 48 hr
  viability at 48 h, 2 nM: 92.2 ± 1.5%
[4]; no lovastatin 48 hr, then taxol 5 nM 48 hr
  viability at 48 h, 5 nM: 61.5 ± 2.2%
[4]; no lovastatin 48 hr, then taxol 10 nM 48 hr
  viability at 48 h, 10 nM: 57.9 ± 3.3%
[4]; no lovastatin 72 hr, then taxol 2 nM 48 hr
  viability at 48 h, 2 nM: 85.1 ± 1.9%
[4]; no lovastatin 72 hr, then taxol 2 nM 72 hr
  viability at 72 hr, 2 nM: 77.7 ± 2.6%
[4]; no lovastatin 72 hr, then taxol 5 nM 48 hr
  viability at 48 h, 5 nM: 64.2 ± 1.2%
[4]; no lovastatin 72 hr, then taxol 5 nM 72 hr
  viability at 72 h, 5 nM: 65.8 ± 1.3%
[4]; no lovastatin 72 hr, then taxol 10 nM 48 hr
  viability at 48 h, 10 nM: 60.5 ± 3.2%
[4]; no lovastatin 72 hr, then taxol 10 nM 72 hr
  viability at 72 h, 10 nM: 63.6 ± 8.4%
[4]; taxol 2 nM alone, Table 10
  viability at 96 h, 2 nM: 72.4 ± 6.9%
[4]; taxol 2 nM, 48 hr
  viability at 48 h, 2 nM: 94.5 ± 5.4%
[4]; taxol 2 nM, 48 hr, Table 9
  viability at 48 h, 2 nM: 88 ± 1.9%
[4]; taxol 2 nM, 72 hr
  viability at 72 h, 2 nM: 89.2 ± 2.6%
[4]; taxol 2 nM, 72 hr, Table 9
  viability at 72 h, 2 nM: 89.2 ± 2.6%
[4]; taxol 2 nM
  viability at 96 h, 2 nM: 66.6 ± 3.5%
[4]; taxol 2 nM, 120 hr
  viability at 120 h, 2 nM: 65.1 ± 0.9%
[4]; taxol 5 nM alone, Table 10
  viability at 96 h, 5 nM: 49.3 ± 9.9%
[4]; taxol 5 nM, 48 hr
  viability at 48 h, 5 nM: 72.9 ± 4%
[4]; taxol 5 nM, 48 hr, Table 9
  viability at 48 h, 5 nM: 74.7 ± 2.3%
[4]; taxol 5 nM, 72 hr
  viability at 72 h, 5 nM: 63.7 ± 2.3%
[4]; taxol 5 nM, 72 hr, Table 9
  viability at 72 h, 5 nM: 63.7 ± 2.3%
[4]; taxol 5 nM
  viability at 96 h, 5 nM: 36.2 ± 5.5%
[4]; taxol 5 nM, 120 hr
  viability at 120 h, 5 nM: 33.8 ± 0.6%
[4]; taxol 10 nM alone, Table 10
  viability at 96 h, 10 nM: 24.8 ± 2.5%
[4]; taxol 10 nM, 48 hr
  viability at 48 h, 10 nM: 64.2 ± 3.8%
[4]; taxol 10 nM, 48 hr, Table 9
  viability at 48 h, 10 nM: 58.1 ± 8.1%
[4]; taxol 10 nM, 72 hr
  viability at 72 h, 10 nM: 39 ± 0.5%
[4]; taxol 10 nM, 72 hr, Table 9
  viability at 72 h, 10 nM: 39 ± 0.5%
[4]; taxol 10 nM
  viability at 96 h, 10 nM: 22.7 ± 4.1%
[4]; taxol 10 nM, 120 hr
  viability at 120 h, 10 nM: 19 ± 3.4%
[4]; taxol 20 nM, 48 hr
  viability at 48 h, 20 nM: 53.5 ± 1.1%
[4]; taxol 20 nM, 72 hr
  viability at 72 h, 20 nM: 35.4 ± 3.6%
[4]; taxol 50 nM, 48 hr
  viability at 48 h, 50 nM: 47 ± 2.3%
[4]; taxol 50 nM, 72 hr
  viability at 72 h, 50 nM: 33.9 ± 3.7%
[4]; taxol 100 nM, 48 hr
  viability at 48 h, 100 nM: 34.6 ± 9.1%
[4]; taxol 100 nM, 72 hr
  viability at 72 h, 100 nM: 19.5 ± 4.6%
[4]; taxol 200 nM, 48 hr
  viability at 48 h, 200 nM: 35.4 ± 5.5%
[4]; taxol 200 nM, 72 hr
  viability at 72 h, 200 nM: 15.6 ± 5.8%
[4]; taxol 500 nM, 48 hr
  viability at 48 h, 500 nM: 29.1 ± 4.2%
[4]; taxol 500 nM, 72 hr
  viability at 72 h, 500 nM: 11 ± 5%
[4]; taxol 1000 nM, 48 hr
  viability at 48 h, 1000 nM: 15 ± 3.9%
[4]; taxol 1000 nM, 72 hr
  viability at 72 h, 1000 nM: 9.9 ± 4.9%
[5]; [6]
  percentage of inhibition of tumor size: (−54.2%
[5]; Day 8
  Tumor size: 0.111 cm^3
[5]; Day 11
  Tumor size: 0.125 cm^3
[5]; Day 17
  Tumor size: 0.063 cm^3
[5]; Day 26
  Tumor size: 0.064 cm^3
[5]; Day 29
  Tumor size: 0.137 cm^3
[5]; Day 35 after inoculation, p.o. lovastatin 37.5 mg/kg/day (days 28-34, 49-55) and/or i.p. taxol 120 μg/kg/2 day (days 36, 38, 40, 57, 59, 61), mean ± SEM
  Tumor size (1 × w^2 × 0.52 cm^3) Day 35: 0.400 cm^3
[5]; Day 38 after inoculation, p.o. lovastatin 37.5 mg/kg/day (days 28-34, 49-55) and/or i.p. taxol 120 μg/kg/2 day (days 36, 38, 40, 57, 59, 61), mean ± SEM
  Tumor size (1 × w^2 × 0.52 cm^3) Day 38: 0.415 cm^3
[5]; Day 42 after inoculation, p.o. lovastatin 37.5 mg/kg/day (days 28-34, 49-55) and/or i.p. taxol 120 μg/kg/2 day (days 36, 38, 40, 57, 59, 61), mean ± SEM
  Tumor size (1 × w^2 × 0.52 cm^3) Day 42: 0.465 cm^3
[5]; Day 49 after inoculation, p.o. lovastatin 37.5 mg/kg/day (days 28-34, 49-55) and/or i.p. taxol 120 μg/kg/2 day (days 36, 38, 40, 57, 59, 61), mean ± SEM
  Tumor size (1 × w^2 × 0.52 cm^3) Day 49: 0.811 cm^3
[5]; Day 56 after inoculation, p.o. lovastatin 37.5 mg/kg/day (days 28-34, 49-55) and/or i.p. taxol 120 μg/kg/2 day (days 36, 38, 40, 57, 59, 61), mean ± SEM
  Tumor size (1 × w^2 × 0.52 cm^3) Day 56: 0.996 cm^3
[5]; Day 63 after inoculation, p.o. lovastatin 37.5 mg/kg/day (days 28-34, 49-55) and/or i.p. taxol 120 μg/kg/2 day (days 36, 38, 40, 57, 59, 61), mean ± SEM
  Tumor size (1 × w^2 × 0.52 cm^3) Day 63: 1.424 cm^3
